Assay [1] concerns the target T1, human D2 receptor (short isoform) (Homo sapiens, UniProt P14416).
T1 construct: membrane homogenate, 3H-spiperone displacement
The experiment in a line: D2 receptor binding, displacement of 3H-spiperone (GH4C1 cells), for D2/D4 selectivity. Conditions: for D2/D4: D4 selectivity, ratio D2/D4. As to the method: (§1) The potency of the test compound to reduce ^3 H-spiperone binding directly correlated to its binding affinity for the receptor.
GH4 C1 (rat pituitary) cells stably transfected with the human D2 receptor (short isoform) were grown in CO2 independent media in roller bottles (1500 cm^2) for 10 days. 100 μM ZnSO4 was added to the cells (the D2 promoter being zinc inducible). After 16 hours, fresh media was added to allow the cells to recover for 24 hours. The cells were harvested using versene and then centrifuged in a Sorval centrifuge for 10 minutes, at 5000 rpm (GS3 rotor). Pellets were quickly frozen in liquid nitrogen and stored at -80° C. until used in the binding assays. When used in the assay, cells were thawed on ice for 20 minutes. […] 10 mL of incubation buffer was added to the pellets which were then vortexed, resuspended and homogenized with a Kinematica CH-6010 Kriens-LU homogenizer for 15 seconds at setting 7. The receptor protein concentration was determined using the Pierce BCA assay.
(§2) Total Spiperone Binding Assay
(§3) The incubation was started by the addition of 500 μl (50 μg protein) membrane homogenate to a solution of 900 μl incubation buffer and 100 μl (0.25 nM final conc.) ^3 H-spiperone (90 Ci/mmol Amersham diluted in borosilicate glass vial) in 12×75 mm polypropylene tubes. The tubes were vortexed and incubated at room temperature for 90 minutes. The binding reaction was stopped by filtering using a Brandell Cell Harvester. The samples were filtered under vacuum over glass fibre filters (Whatman GF/B) presoaked for 2 hours in 0.3% polyethyleneimine (PEI) in 50 mM Tris buffer (pH7.4). The filters were then washed 3 times with 5 mL ice cold 50 mM Tris buffer (pH7.4). Individual filter disks were put in scintillation vials (Biovials, Bechman). Ready Protein Plus liquid scintillant (5 mL, Beckman) was added and the vials counted by liquid scintillation spectrophotometry (Beckman LSC 6500) after equilibrating for three hours at room temperature to determine total binding (BT).
Non-Specific Binding Assay for D2
This assay employed the same procedures as the non-specific binding assay for D4 with the exception that 2 μM (final conc.) of (-) sulpiride (Research Chemicals Inc.) was used in place of dopamine.
(§4) Displacement Binding Assay
(§5) The incubation was started by the addition to 12×75 mm polypropylene tubes 500 μl (50 μg protein) membrane homogenate to a solution of 400 μl incubation buffer, 100 μl (0.25 final conc.) ^3 H-spiperone (90Ci/mmol, Amersham, diluted in borosilicate glass vial to) and […] of test compound that was prepared from 1 mM stock dissolved in DMSO and stored at -20° C. in polypropylene cryogenic storage vials until dilution in incubation buffer in borosilicate glass vials. The tubes were vortexed and incubated at room temperature for 90 minutes at which time the binding reaction was stopped by filtering. The filters were washed and counted using the same procedure as in the total binding assay described above to give the displacement binding value (BD).
Specific binding in the absence of test compound (BO) was the difference of total binding (BT) minus non-specific binding (NSB) and similarly specific binding (in the presence of test compound) (B) was the difference of displacement binding (BD) minus non-specific binding (NSB). IC50 was determined from an inhibition response curve, logit-log plot of %B/BO vs concentration of test compound.
(§6) Ki was calculated by the Cheng and Prustoff transformation: […]
(§7) where [L] is the concentration of ^3 H-spiperone used in the assay and KD is the to dissociation constant of ^3 H-spiperone determined independently under the same binding conditions.
Background: Loss of bound radioactivity is the signal in a displacement assay; it reports binding, not function.

Assay [2] has as its target T2, human D4 receptor (D4.2 sub-type) (Homo sapiens, UniProt P21917, DEL265-296).
T2 construct: expressed in transfected cells; host or cells: HEK 298 (human embryonic kidney) cells, [sic]; homogenate of stably transfected cells
T2 sequence (P21917 with tags, fused parts or gaps DEL265-296): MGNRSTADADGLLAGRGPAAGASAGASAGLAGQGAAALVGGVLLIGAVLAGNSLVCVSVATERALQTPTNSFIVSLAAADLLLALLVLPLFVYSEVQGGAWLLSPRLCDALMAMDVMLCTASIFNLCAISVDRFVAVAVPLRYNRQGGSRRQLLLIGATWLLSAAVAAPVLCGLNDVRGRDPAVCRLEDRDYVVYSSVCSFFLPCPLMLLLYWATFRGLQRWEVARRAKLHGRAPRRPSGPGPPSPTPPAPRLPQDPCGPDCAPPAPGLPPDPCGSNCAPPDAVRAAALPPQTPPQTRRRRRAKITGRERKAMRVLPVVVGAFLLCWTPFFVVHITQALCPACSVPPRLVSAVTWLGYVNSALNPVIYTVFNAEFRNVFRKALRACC
The experiment in a line: D4 receptor binding, displacement of 3H-spiperone. Conditions: for Ki: human D4 receptor, 3H-spiperone 0.25 nM. On the procedure: as §1
The cells were then centrifuged in a Sorval centrifuge for 10 minutes, 5000 rpm (GS3 rotor) and the pellets quickly frozen in liquid nitrogen and stored at -80° C. until used in binding assay. When used in the assay, cells were thawed on ice for 20 minutes and then 10 mL of incubation buffer (50 mM Tris, 1 mM EDTA, 4 mM MgCl2, 5 mM KCl, 1.5 mM CaCl2, 120 mM NaCl, pH7.4) was added. […] Concentration of receptor protein was determined using the Pierce BCA assay.
as §2
as §3, with “The” for “The incubation was started by the addition of 500 μl (50 μg protein) membrane homogenate to a solution of 900 μl incubation buffer and 100 μl (0.25 nM final conc.) ^3 H-spiperone (90 Ci/mmol Amersham diluted in borosilicate glass vial) in 12×75 mm polypropylene tubes. The”
Non-Specific Binding Assay for D4
The tubes were vortexed and incubated at room temperature for 90 minutes at which time the binding reaction was stopped by filtering. The filters were washed and counted using the same procedure as in the total binding assay described above to give the non-specific binding value (NSB).
as §4, §5
IC50 was determined from an inhibition response curve, logit-log plot of %B/BO vs concentration of test compound.
as §6, §7

The mark [3] stands for this setting: compared with corresponding 4-methyl piperazine compound.

Structures are written as SMILES.

T1 sequence (P14416 with tags, fused parts or gaps DEL242-270): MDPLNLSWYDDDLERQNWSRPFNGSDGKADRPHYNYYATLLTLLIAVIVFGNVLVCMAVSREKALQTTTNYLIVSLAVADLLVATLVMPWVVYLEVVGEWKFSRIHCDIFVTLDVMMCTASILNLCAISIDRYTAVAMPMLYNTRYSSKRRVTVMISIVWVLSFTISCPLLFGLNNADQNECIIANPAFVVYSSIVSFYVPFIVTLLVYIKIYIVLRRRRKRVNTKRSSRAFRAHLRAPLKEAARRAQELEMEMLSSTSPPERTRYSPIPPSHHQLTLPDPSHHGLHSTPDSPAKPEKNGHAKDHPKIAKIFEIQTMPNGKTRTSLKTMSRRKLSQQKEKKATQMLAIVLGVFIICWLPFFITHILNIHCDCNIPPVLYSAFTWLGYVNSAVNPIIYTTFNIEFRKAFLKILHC

Usually Ki stands for the equilibrium dissociation constant of an inhibitor or competing ligand from its target. High values mean lower affinity, low ones higher affinity. Take `Clc1cccc2c1Oc1ccccc1N=C2N1CCN(Cc2ccc3c(c2)OCO3)CC1` [4-chloro-11-(4-piperonyl-1-piperazinyl)dibenz[b,f][1,4]oxazepine]: in assay [1], the D2/D4 amounted to 99.2. The D4 selectivity result in assay [1] (compared with clozapine) is given as “better D4 selectivity than clozapine”. The compound further returned a Ki in assay [2] of 57 nM.

Consider `Clc1cccc2c1Nc1ccccc1N=C2N1CCN(Cc2ccc3c(c2)OCO3)CC1` [4-chloro-11-(4-piperonyl-1-piperazinyl)-5H-dibenzo[b,e][1,4]diazepine], for which, in assay [1], the D2/D4 was determined as 10.6. Moreover, the D4 selectivity result in assay [1] (compared with clozapine) is “better D4 selectivity than clozapine”. Besides, the affinity in assay [2], expressed as Ki, was 34 nM.

`Clc1ccc2c(c1)C(N1CCN(Cc3ccc4c(c3)OCO4)CC1)=Nc1ccccc1N2` [2-Chloro-11-(4-piperonyl)-1-piperazinyl-5H-dibenzo[b,e][1,4]diazepine]: the D2/D4 in assay [1] is 7.3. Also, in assay [2], the inhibition constant (Ki) is 76 nM.

As for `Cc1cc2c(cc1C)Nc1ccccc1C(N1CCN(Cc3ccc4c(c3)OCO4)CC1)=N2` [7,8-dimethyl-11-(4-piperonyl)-1-piperazinyl)-5H-dibenzo[b,f][1,4]diazepine], the D2/D4 in assay [1] amounted to 14.1. Moreover, the D4 selectivity result is given as “better D4 selectivity than clozapine” in assay [1] (compared with clozapine) and “better D4selectivity than the corresponding 4-methyl piperazine compound” in assay [1] (setting [3]). The “D4 affinity and selectivity” value in assay [2] (setting [3]) is “better D4 affinity and selectivity than the corresponding 4-methyl piperazine compound”. Affinity in assay [2] was put at a Ki of 266 nM.

Turning to `Clc1ccc2c(c1)N=C(N1CCN(Cc3ccc4c(c3)OCO4)CC1)c1ccccc1S2` [8-chloro-11-(4-piperonyl)-1-piperazinyl)dibenzo[b,f][1,4]thiazepine], the D2/D4 in assay [1] is 63. Besides, the figures for the D4 selectivity result in assay [1] (compared with clozapine) and in assay [1] (setting [3]) were “better D4 selectivity than clozapine” and “better D4selectivity than the corresponding 4-methyl piperazine compound”, respectively. Moreover, the “D4 affinity and selectivity” value in assay [2] (setting [3]) was “better D4 affinity and selectivity than the corresponding 4-methyl piperazine compound”. The compound further came in with a Ki in assay [2] of 24 nM.

Consider `N#Cc1cccc2c1Oc1ccccc1N=C2N1CCN(Cc2ccc3c(c2)OCO3)CC1` [4-cyano-11-(4-piperonyl-1-piperazinyl)dibenz[b,f][1,4]oxazepine], for which the D2/D4 in assay [1] was 82.1. In addition, in assay [1] (compared with clozapine), the D4 selectivity result was “better D4 selectivity than clozapine”. In addition, in assay [2], the Ki is 119 nM.

Turning to `COc1ccc2c(c1)C(N1CCN(Cc3ccc4c(c3)OCO4)CC1)=Nc1ccccc1N2` [2-methoxy-11-(4-piperonyl-1-piperazinyl)-5H-dibenzo[b,e][1,4]diazepine], the D2/D4 in assay [1] worked out at 5.1. Further, the D4 selectivity entry in assay [1] (setting [3]) was “better D4selectivity than the corresponding 4-methyl piperazine compound”. For the same compound, the D4 affinity result in assay [2] (compared with clozapine) is “better D4 affinity than clozapine”. The “D4 affinity and selectivity” value in assay [2] (setting [3]) is “better D4 affinity and selectivity than the corresponding 4-methyl piperazine compound”. In assay [2], this compound registered an inhibitory constant (Ki) of 15 nM.

With `Clc1cc2c(cc1Cl)Nc1ccccc1C(N1CCN(Cc3ccc4c(c3)OCO4)CC1)=N2` [7,8-dichloro-11-(4-piperonyl-1-piperazinyl)-5H-dibenzo[b,e][1,4]diazepine], the D2/D4 in assay [1] is recorded as 27.4. Besides, the D4 selectivity entry is given as “better D4 selectivity than clozapine” in assay [1] (compared with clozapine) and “better D4selectivity than the corresponding 4-methyl piperazine compound” in assay [1] (setting [3]). The same compound yielded a Ki in assay [2] of 61 nM.

`FC(F)(F)c1ccc2c(c1)C(N1CCN(Cc3ccc4c(c3)OCO4)CC1)=Nc1ccccc1N2` [2-trifluoromethyl-11-(4-piperonyl-1-piperazinyl)-5H-dibenzo[b,e][1,4]diazepine]: the D2/D4 in assay [1] was found to be 1.9. Further, the D4 selectivity entry in assay [1] (setting [3]) is “better D4selectivity than the corresponding 4-methyl piperazine compound”. This compound also gave a Ki in assay [2] of 73.5 nM.

For the compound `O=[N+]([O-])c1ccc2c(c1)C=C(N1CCN(Cc3ccc4c(c3)OCO4)CC1)c1ccccc1S2` [2-nitro-10-(4-piperonyl-1-piperazinyl)dibenzo[b,f]thiepine], the D2/D4 in assay [1] stood at 281. The D4 selectivity result in assay [1] (compared with clozapine) is “better D4 selectivity than clozapine”. For the same compound, the D4 selectivity result in assay [1] (setting [3]) is “better D4selectivity than the corresponding 4-methyl piperazine compound”. Moreover, in assay [2] (compared with clozapine), the D4 affinity entry is reported as “better D4 affinity than clozapine”; the “D4 affinity and selectivity” value is “better D4 affinity and selectivity than clozapine”. Moreover, the affinity in assay [2] corresponds to a Ki of 15.3 nM.

Regarding `O=[N+]([O-])c1cccc2c1Oc1ccccc1N=C2N1CCN(Cc2ccc3c(c2)OCO3)CC1` [4-nitro-11-(4-piperonyl-1-piperazinyl)dibenz[b,f][1,4]oxazepine], the D2/D4 in assay [1] is listed as 53.2. Further, in assay [1] (compared with clozapine), the D4 selectivity result was “better D4 selectivity than clozapine”. The same compound came in with a Ki in assay [2] of 24.5 nM.

As to `c1ccc2c(c1)N=C(N1CCN(Cc3ccc4c(c3)OCO4)CC1)c1ccccc1N2` [11-(4-piperonyl)-1-piperazinyl-5H-dibenzo[b,e][1,4]diazepine], in assay [1], the D2/D4 was determined as 6. The D4 selectivity result in assay [1] (setting [3]) is “better D4selectivity than the corresponding 4-methyl piperazine compound”. Also, in assay [2] (setting [3]), the “D4 affinity and selectivity” value is “better D4 affinity and selectivity than the corresponding 4-methyl piperazine compound”. This compound returned a Ki in assay [2] of 63 nM.

With `Cc1ccc2c(c1)N=C(N1CCN(Cc3ccc4c(c3)OCO4)CC1)c1ccccc1O2` [8-methyl-11-(4-piperonyl)-1-piperazinyl)dibenz[b,f][1,4]oxazepine], the D2/D4 in assay [1] is given as 9.8. Besides, in assay [1] (setting [3]), the D4 selectivity result was “better D4selectivity than the corresponding 4-methyl piperazine compound”. Besides, the “D4 affinity and selectivity” value in assay [2] (setting [3]) was “better D4 affinity and selectivity than the corresponding 4-methyl piperazine compound”. This compound had a Ki in assay [2] of 143 nM.

For the compound `Clc1ccc2c(c1)C(N1CCN(Cc3ccc4c(c3)OCO4)CC1)=Nc1cc(Cl)c(Cl)cc1N2` [2,7,8-trichloro-11-(4-piperonyl-1-piperazinyl)-5H-dibenzo[b,e][1,4]diazepine], the D2/D4 in assay [1] came to 15.7. The D4 selectivity result in assay [1] (compared with clozapine) was “better D4 selectivity than clozapine”; in assay [1] (setting [3]), “better D4selectivity than the corresponding 4-methyl piperazine compound”. In assay [2], this compound gave a Ki of 149 nM.

The values are drawn from patent US5798350A, “Dopamine receptor ligands” (Allelix Biopharmaceuticals, Inc., priority 1996, dated 1998).
